Test results reported in patent US12077503B2, “Substituted cyclic amides and their use as herbicides” (FMC CORPORATION, priority 2015, dated 2024).

Tests used:
Assay type in all cases: in vivo
[1] = system: barnyardgrass (Echinochloa crus-galli); assay: Test G Pre-Emergence Protocol; conditions: Echinochloa crus-galli, pre-emergence, 312 h, evaluated after 13 days; for pest or weed control at 15.625 g/ha: 15.625 g ai/ha, read-out: Barnyard grass damage rating (100=total damage to plant; 0=no damage to plant); for pest or weed control at 62.5 g/ha: 62.5 g ai/ha, 100=total damage to plant, 0=no damage to plant, read-out: plant damage rating, Barnyardgrass; for pest or weed control at 250 g/ha: 250 g ai/ha, read-out: Barnyardgrass damage rating (100=total damage to plant; 0=no damage to plant)
Summary of the method: (§1)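 Pots of seeds in standard soil were grown for one day in a glasshouse (24/16 °C day/night, 14 h light, 65% humidity), then sprayed with compound in acetone/water 50:50 with 0.5% Tween 20 at 15.625, 62.5 or 250 g/ha. Damage was scored after 13 days on a 0 (none) to 100 (total) scale.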

corn (Zea mays) [2] = assay: Test G Pre-Emergence Protocol; conditions: Zea mays, pre-emergence, 312 h, evaluated after 13 days; for plant injury at 15.625 g/ha: 15.625 g ai/ha; for plant injury at 15.625 g/ha / plant injury at 250 g/ha: read-out: Corn damage rating (100=total damage to plant; 0=no damage to plant); for plant injury at 62.5 g/ha: 62.5 g ai/ha, 100=total damage to plant, 0=no damage to plant, read-out: plant damage rating, Corn; for plant injury at 250 g/ha: 250 g ai/ha
Summary of the method: as §1

[3] = system: giant foxtail (Setaria faberi); assay: Test G Pre-Emergence Protocol; conditions: Setaria faberi, pre-emergence, 312 h, evaluated after 13 days; for pest or weed control at 15.625 g/ha: 15.625 g ai/ha; for pest or weed control at 15.625 g/ha / pest or weed control at 250 g/ha: read-out: Foxtail, Giant damage rating (100=total damage to plant; 0=no damage to plant); for pest or weed control at 62.5 g/ha: 62.5 g ai/ha, 100=total damage to plant, 0=no damage to plant, read-out: plant damage rating, Foxtail, Giant; for pest or weed control at 250 g/ha: 250 g ai/ha
Summary of the method: as §1

[4] = system: ivy-leaved morning glory (Ipomoea hederacea); assay: Test G Pre-Emergence Protocol; conditions: Ipomoea, pre-emergence, 312 h, evaluated after 13 days; for pest or weed control at 15.625 g/ha: 15.625 g ai/ha, read-out: Morning-glory, Ivy-leaved damage rating (100=total damage to plant; 0=no damage to plant); for pest or weed control at 62.5 g/ha: 62.5 g ai/ha, 100=total damage to plant, 0=no damage to plant, read-out: plant damage rating, Morningglory, Ivy-leaved; for pest or weed control at 250 g/ha: 250 g ai/ha, read-out: Morningglory, Ivy-leaved damage rating (100=total damage to plant; 0=no damage to plant)
Summary of the method: as §1

[5] = system: redroot pigweed (Amaranthus retroflexus); assay: Test G Pre-Emergence Protocol; conditions: Amaranthus retroflexus, pre-emergence, 312 h, evaluated after 13 days; for pest or weed control at 15.625 g/ha: 15.625 g ai/ha; for pest or weed control at 15.625 g/ha / pest or weed control at 250 g/ha: read-out: Pigweed, Redroot damage rating (100=total damage to plant; 0=no damage to plant); for pest or weed control at 62.5 g/ha: 62.5 g ai/ha, 100=total damage to plant, 0=no damage to plant, read-out: plant damage rating, Pigweed, Redroot; for pest or weed control at 250 g/ha: 250 g ai/ha
Summary of the method: as §1

[6] = system: velvetleaf (Abutilon theophrasti); assay: Test G Pre-Emergence Protocol; conditions: Abutilon theophrasti, pre-emergence, 312 h, evaluated after 13 days; for pest or weed control at 15.625 g/ha: 15.625 g ai/ha; for pest or weed control at 15.625 g/ha / pest or weed control at 250 g/ha: read-out: Velvetleaf damage rating (100=total damage to plant; 0=no damage to plant); for pest or weed control at 62.5 g/ha: 62.5 g ai/ha, 100=total damage to plant, 0=no damage to plant, read-out: plant damage rating, Velvetleaf; for pest or weed control at 250 g/ha: 250 g ai/ha
Summary of the method: as §1

[7] = system: barnyardgrass (Echinochloa crus-galli); assay: Test G Post-Emergence Protocol; conditions: Echinochloa crus-galli, post-emergence, 312 h; for pest or weed control at 15.625 g/ha: 15.625 g ai/ha, evaluated after 13 days (100=total damage to plant; 0=no damage to plant), read-out: Barnyardgrass damage rating; for pest or weed control at 62.5 g/ha: 62.5 g ai/ha, read-out: Barnyardgrass damage rating (100=total damage to plant; 0=no damage to plant); for pest or weed control at 62.5 g/ha / pest or weed control at 250 g/ha: evaluated after 13 days; for pest or weed control at 250 g/ha: 250 g ai/ha, read-out: damage to plant, Barnyardgrass (100=total damage to plant; 0=no damage to plant)
Summary of the method: (§2)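 Post-emergence herbicidal damage, scored visually 0–100 at 13 days. Application at 15.625, 62.5 or 250 g/ha onto 8-day-old plants grown under glasshouse control.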

corn (Zea mays) [8] = assay: Test G Post-Emergence Protocol; conditions: Zea mays, post-emergence, 312 h; for plant injury at 15.625 g/ha: 15.625 g ai/ha, evaluated after 13 days (100=total damage to plant; 0=no damage to plant), read-out: Corn damage rating; for plant injury at 62.5 g/ha: 62.5 g ai/ha, read-out: Corn damage rating (100=total damage to plant; 0=no damage to plant); for plant injury at 62.5 g/ha / plant injury at 250 g/ha: evaluated after 13 days; for plant injury at 250 g/ha: 250 g ai/ha, read-out: damage to plant, Corn (100=total damage to plant; 0=no damage to plant)
Summary of the method: as §2

[9] = system: giant foxtail (Setaria faberi); assay: Test G Post-Emergence Protocol; conditions: Setaria faberi, post-emergence, 312 h; for pest or weed control at 15.625 g/ha: 15.625 g ai/ha, evaluated after 13 days (100=total damage to plant; 0=no damage to plant), read-out: Foxtail, Giant damage rating; for pest or weed control at 62.5 g/ha: 62.5 g ai/ha, read-out: Foxtail, Giant damage rating (100=total damage to plant; 0=no damage to plant); for pest or weed control at 62.5 g/ha / pest or weed control at 250 g/ha: evaluated after 13 days; for pest or weed control at 250 g/ha: 250 g ai/ha, read-out: damage to plant, Foxtail, Giant (100=total damage to plant; 0=no damage to plant)
Summary of the method: as §2

[10] = system: ivy-leaved morning glory (Ipomoea hederacea); assay: Test G Post-Emergence Protocol; conditions: Ipomoea, post-emergence, 312 h; for pest or weed control at 15.625 g/ha: 15.625 g ai/ha, evaluated after 13 days (100=total damage to plant; 0=no damage to plant), read-out: Morningglory, Ivy-leaved damage rating; for pest or weed control at 62.5 g/ha: 62.5 g ai/ha, read-out: Morningglory, Ivy-leaved damage rating (100=total damage to plant; 0=no damage to plant); for pest or weed control at 62.5 g/ha / pest or weed control at 250 g/ha: evaluated after 13 days; for pest or weed control at 250 g/ha: 250 g ai/ha, read-out: damage to plant, Morningglory, Ivy-leaved (100=total damage to plant; 0=no damage to plant)
Summary of the method: as §2

[11] = system: redroot pigweed (Amaranthus retroflexus); assay: Test G Post-Emergence Protocol; conditions: Amaranthus retroflexus, post-emergence, 312 h; for pest or weed control at 15.625 g/ha: 15.625 g ai/ha, evaluated after 13 days (100=total damage to plant; 0=no damage to plant), read-out: Pigweed, Redroot damage rating; for pest or weed control at 62.5 g/ha: 62.5 g ai/ha, read-out: Pigweed, Redroot damage rating (100=total damage to plant; 0=no damage to plant); for pest or weed control at 62.5 g/ha / pest or weed control at 250 g/ha: evaluated after 13 days; for pest or weed control at 250 g/ha: 250 g ai/ha, read-out: damage to plant, Pigweed, Redroot (100=total damage to plant; 0=no damage to plant)
Summary of the method: as §2

[12] = system: velvetleaf (Abutilon theophrasti); assay: Test G Post-Emergence Protocol; conditions: Abutilon theophrasti, post-emergence, 312 h; for pest or weed control at 15.625 g/ha: 15.625 g ai/ha, evaluated after 13 days (100=total damage to plant; 0=no damage to plant), read-out: Velvetleaf damage rating; for pest or weed control at 62.5 g/ha: 62.5 g ai/ha, read-out: Velvetleaf damage rating (100=total damage to plant; 0=no damage to plant); for pest or weed control at 62.5 g/ha / pest or weed control at 250 g/ha: evaluated after 13 days; for pest or weed control at 250 g/ha: 250 g ai/ha, read-out: damage to plant, Velvetleaf (100=total damage to plant; 0=no damage to plant)
Summary of the method: as §2

SMILES | pest or weed control at 15.625 g/ha [1] | pest or weed control at 62.5 g/ha [1] | pest or weed control at 250 g/ha [1] | plant injury at 15.625 g/ha (corn (Zea mays) [2]) | plant injury at 62.5 g/ha (corn (Zea mays) [2]) | plant injury at 250 g/ha (corn (Zea mays) [2]) | pest or weed control at 15.625 g/ha [3] | pest or weed control at 62.5 g/ha [3] | pest or weed control at 250 g/ha [3] | pest or weed control at 15.625 g/ha [4] | pest or weed control at 62.5 g/ha [4] | pest or weed control at 250 g/ha [4] | pest or weed control at 15.625 g/ha [5] | pest or weed control at 62.5 g/ha [5] | pest or weed control at 250 g/ha [5] | pest or weed control at 15.625 g/ha [6] | pest or weed control at 62.5 g/ha [6] | pest or weed control at 250 g/ha [6] | pest or weed control at 15.625 g/ha [7] | pest or weed control at 62.5 g/ha [7] | also measured
Cc1nccc(NC(=O)[C@@H]2C(=O)N(C)C[C@H]2c2ccc(C(F)(F)F)cc2)c1C (racemic) [Compound 1630] | 0% | 0% | 0% | 0% | 0% | 0% | 0% | 0% | 0% | 0% | 0% | 0% | 0% | 0% | 0% | 0% | 0% | 0% | 0% | 0% | pest or weed control at 250 g/ha [7]: 0%; plant injury at 15.625 g/ha (corn (Zea mays) [8]): 0%; plant injury at 62.5 g/ha (corn (Zea mays) [8]): 0%; plant injury at 250 g/ha (corn (Zea mays) [8]): 0%; pest or weed control at 15.625 g/ha [9]: 0%; pest or weed control at 62.5 g/ha [9]: 0%; pest or weed control at 250 g/ha [9]: 0%; pest or weed control at 15.625 g/ha [10]: 0%; pest or weed control at 62.5 g/ha [10]: 0%; pest or weed control at 250 g/ha [10]: 0%; pest or weed control at 15.625 g/ha [11]: 0%; pest or weed control at 62.5 g/ha [11]: 0%; pest or weed control at 250 g/ha [11]: 0%; pest or weed control at 15.625 g/ha [12]: 0%; pest or weed control at 62.5 g/ha [12]: 0%; pest or weed control at 250 g/ha [12]: 0%
Cc1n[nH]cc1NC(=O)[C@@H]1C(=O)N(C)C[C@H]1c1ccc(C(F)(F)F)cc1 (racemic) [Compound 1634] | 0% | 0% | 0% | 0% | 0% | 0% | 0% | 0% | 0% | 0% | 0% | 0% | 0% | 0% | 0% | 0% | 0% | 0% | 0% | 0% | pest or weed control at 250 g/ha [7]: 0%; plant injury at 15.625 g/ha (corn (Zea mays) [8]): 0%; plant injury at 62.5 g/ha (corn (Zea mays) [8]): 0%; plant injury at 250 g/ha (corn (Zea mays) [8]): 0%; pest or weed control at 15.625 g/ha [9]: 0%; pest or weed control at 62.5 g/ha [9]: 0%; pest or weed control at 250 g/ha [9]: 20%; pest or weed control at 15.625 g/ha [10]: 0%; pest or weed control at 62.5 g/ha [10]: 0%; pest or weed control at 250 g/ha [10]: 0%; pest or weed control at 15.625 g/ha [11]: 0%; pest or weed control at 62.5 g/ha [11]: 0%; pest or weed control at 250 g/ha [11]: 0%; pest or weed control at 15.625 g/ha [12]: 0%; pest or weed control at 62.5 g/ha [12]: 0%; pest or weed control at 250 g/ha [12]: 0%
CN1C[C@@H](c2ccc(C(F)(F)F)cc2)[C@H](C(=O)Nc2cccc(F)c2C#N)C1=O (racemic) [Compound 1637] | 20% | 30% | 80% | 0% | 0% | 30% | 60% | 90% | 90% | 0% | 0% | 0% | 20% | 50% | 60% | 0% | 0% | 0% | 20% | 70% | pest or weed control at 250 g/ha [7]: 70%; plant injury at 15.625 g/ha (corn (Zea mays) [8]): 0%; plant injury at 62.5 g/ha (corn (Zea mays) [8]): 0%; plant injury at 250 g/ha (corn (Zea mays) [8]): 10%; pest or weed control at 15.625 g/ha [9]: 60%; pest or weed control at 62.5 g/ha [9]: 80%; pest or weed control at 250 g/ha [9]: 80%; pest or weed control at 15.625 g/ha [10]: 0%; pest or weed control at 62.5 g/ha [10]: 20%; pest or weed control at 250 g/ha [10]: 30%; pest or weed control at 15.625 g/ha [11]: 40%; pest or weed control at 62.5 g/ha [11]: 70%; pest or weed control at 250 g/ha [11]: 70%; pest or weed control at 15.625 g/ha [12]: 0%; pest or weed control at 62.5 g/ha [12]: 10%; pest or weed control at 250 g/ha [12]: 30%
